Reference: article PMC9101642 (Molecules, 2022)
Like-named read-outs stand apart in the source and are kept apart here. Marks after values point to notes of the source that are not given here.

Columns and labels:
[1] = test system: MNU-induced breast cancer; experiment: In vivo anticancer screening, MNU-induced mammary tumorigenesis; parameters: species or system female Wistar rats
[2] = Lipophilicity by shake-flask method; conditions: pH 7.4
[3] = Serum biochemical markers after treatment of MNU-induced rats; format: in vivo, Wistar rats; parameters: TBC: unit not given here; conditions: for ALP (A/L) / ALT (A/L) / AST (U/L) / γ-GT (U/L): serum; for TBC: total bilirubin content
Protocol: (§1) Rats were housed at 3 per cage and
(§2) The breast cancer was induced after the MNU (Sigma Aldrich CAS No. 684-93-5) administration. An aqueous solution at a concentration of 10 mg/ml was made by wetting the NMU powder with 3% acetic acid and then dissolving it in 0.9% NaCl solution; a fresh solution was prepared for each injection. Rats were given intraperitoneal (i.p.) 50 mg/kg of MNU on the 50th day of age. Animals were divided into different groups with six animals in each group. Group I (intact control) received 0.9% NaCl solution.
(§3) Groups II-IV and V-VII were introduced with MNU. Two weeks after MNU treatment, animals were treated orally with synthesized compounds and control substances (5 and 50 mg/kg, for groups II-IV and V-VII, respectively) by gavage once per day for six weeks. Animals in the intact control group and untreated MNU group were given vehicle (Tween 80) according to the experimental protocol. […]
Upon finishing the treatment with synthesized compounds, animals were sacrificed, and plasma, serum, and liver samples were collected.
Measurement of Serum Biochemical Markers
The activities of AST and ALT on 340 nm, and ALP on 405 nm, were determined by UV-Vis kinetic methods according to recommendations of the Expert Panel of the IFCC (International Federation of Clinical Chemistry). The colorimetric methods were used for the determination of total bilirubin (Jendrassik-Grof 550 nm method). All kinetic and colorimetric measurements were recorded using a Perkin-Elmer Lambda 25 UV/Vis spectrophotometer. […]

ERβ = ERβ (Homo sapiens, UniProt Q92731); experiment: Fluorescence polarization competition assay: antagonistic potency and relative binding affinity; conditions: for logRBA ERβ: log of % relative binding affinity, estradiol = 100%
Sequence of ERβ (Q92731 whole entry): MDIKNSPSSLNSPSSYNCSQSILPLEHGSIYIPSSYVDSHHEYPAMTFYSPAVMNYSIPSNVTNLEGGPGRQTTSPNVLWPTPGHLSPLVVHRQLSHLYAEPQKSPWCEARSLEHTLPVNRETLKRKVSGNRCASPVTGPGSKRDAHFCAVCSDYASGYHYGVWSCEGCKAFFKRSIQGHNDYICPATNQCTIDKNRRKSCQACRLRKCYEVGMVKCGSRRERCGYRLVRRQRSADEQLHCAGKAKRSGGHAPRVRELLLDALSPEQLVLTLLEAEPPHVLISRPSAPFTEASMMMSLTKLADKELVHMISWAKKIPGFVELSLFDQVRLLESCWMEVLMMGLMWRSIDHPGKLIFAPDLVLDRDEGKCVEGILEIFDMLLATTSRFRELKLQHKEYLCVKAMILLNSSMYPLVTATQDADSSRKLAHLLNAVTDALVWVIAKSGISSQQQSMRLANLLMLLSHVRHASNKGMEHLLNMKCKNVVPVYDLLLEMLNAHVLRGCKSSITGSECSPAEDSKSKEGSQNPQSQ

MCF-7 cells = experiment: Cell cycle distribution by flow cytometry; format: cell-based, human; conditions: 24 h
[4] = Plasma protein binding determination; format: in vitro ADME, rat; conditions: rat plasma, 37 °C, read-out: Rat PPB (%free)
Protocol: as §1, §2, §3
(§4) Upon finishing the treatment with synthesized compounds, animals were sacrificed, and plasma, serum, and liver samples were collected. […]
Rat plasma containing either 5 or 50 mg/kg bwt of the tested compounds was incubated at 37°C upper reservoir of the washed Centri-free YM-30 ultrafiltration units (Millipore, Bedford, MA) and then centrifuged for 20 min at 2,000 g. Aliquots of the ultrafiltrates and unfiltered incubation mixtures were analyzed for the total protein concentration by the bicinchoninic acid assay for protein concentration (BCA assay; Pierce, Rockford, IL).

MDA-MB-231 cell lines = experiment: MTT antiproliferative assay; format: cell-based, human; conditions: read-out: MDA-MB-231 (IC50 nM)
[5] = MTT antiproliferative assay (neutral control); conditions: human
MCF-7 cell lines = experiment: MTT antiproliferative assay; format: cell-based, human; conditions: read-out: MCF-7 (IC50 nM)
[6] = test system: MNU-induced breast cancer tissue; experiment: Histopathology of breast sections; format: in vivo, Wistar rats
Excerpt: The impact of selected leads on BC tissue was registered after their administration to experimental animals with MNU-induced BC (Figure 9 and Supplementary Material Figures S211–S218). […] In contrast to this, the administered leads were harmless in both concentrations, neutralizing the MNU-induced changes, judging by the lobuloalveolar units and cuboidal epithelial cells found (Figure 9C,D, and Supplementary Material Figures S214–S218). […]
Histopathological Studies
histopathological changes. […]

[7] = test system: progesterone receptor (PR); experiment: ERα functional antagonism cell assay (PR as biomarker) in MCF-7; format: cell-based; conditions: Homo sapiens, MCF7; progesterone receptor as biomarker for ERα antagonism in MCF-7
[8] = Liver oxidative stress markers after treatment of MNU-induced rats; format: in vivo, Wistar rats; parameters: CAT: unit not given here; conditions: liver; for CAT: catalase activity; for GSH: reduced glutathione; for SOD (U/mg): superoxide dismutase activity; for TP: total protein content
Protocol: as §1, §2, §3, §4
Determination of Antioxidant Markers in Liver Homogenate
Rat liver samples were homogenized in phosphate buffer (5 mM, pH = 7.4) to give a 10% (w/v) liver homogenate and then centrifuged at 4000 rpm for 15 min at 4°C. The supernatant of liver homogenate was used for the estimation of reduced glutathione (GSH) and catalase (CAT) levels by the colorimetric method. The contents of malondialdehyde (MDA) in the supernatant of the liver homogenates were determined using 1,1,3,3-tetraethoxypropane as standard. Total protein concentrations were determined according to the method of Lowry using bovine serum albumin as […]

[9] = Pharmacokinetics study, oral bioavailability; conditions: rat
[10] = test system: Ishikawa endometrial adenocarcinoma cells; experiment: Antiproliferative assay; format: cell-based; conditions: Homo sapiens, growth inhibition
Excerpt: As SERMs profile is often associated with the stimulation of endometrial cell proliferation and an increase in the incidence of endometrial cancer (EC), the herein compounds were therefore evaluated against Ishikawa endometrial adenocarcinoma cells (Table 8, Supplementary Material Figures […]). […] However, future experimental elaboration, currently beyond the authors' experimental facilities, is required to confirm compounds' promising profiles in terms of no EC induction.

[11] = dose 50 mg/kg (compounds per os after MNU; MNU alone i.p.)
[12] = MFD 1000 mg/kg (MNU: MTD 100 mg/kg bwt), 5 days

CC/C(=C(\c1ccc(O)cc1)c1ccc(OCCN(C)C)cc1)c1ccccc1 [Compound 4-OHT., 4-hydroxytamoxifen, reference compound]
Tumor Burden (week) ([1]; dose 5 mg/kg per os after MNU): 3.36 ± 0.38 *^,†,‖ week | Tumor Latency (week) ([1]; dose 5 mg/kg per os after MNU): 7 * week | Tumor Volume (mm^3) ([1]; dose 5 mg/kg per os after MNU): 1.88 ± 0.35 *^,†,‖ mm^3 | Tumor Burden (week) [1, 11]: 3.22 ± 0.21 *^,†,┴ week | Tumor Latency (week) [1, 11]: 10 *^,† week | Tumor Volume (mm^3) [1, 11]: 1.35 ± 0.63 *^,†,┴ mm^3 | logD at 30 min ([2]; n-octanol/phosphate buffer): 3.64 | ALP (A/L) ([3]; dose 5 mg/kg): 105.32±0.31 A/L | ALT (A/L) ([3]; dose 5 mg/kg): 52.44±0.31 A/L | AST (U/L) ([3]; dose 5 mg/kg): 53.76±0.32 U/L | γ-GT (U/L) ([3]; dose 5 mg/kg): 16.54 U/L | ALP (A/L) ([3]; dose 50 mg/kg): 131.43±0.43 A/L | ALT (A/L) ([3]; dose 50 mg/kg): 59.63±0.32 A/L | AST (U/L) ([3]; dose 50 mg/kg): 58.41±0.25 U/L | γ-GT (U/L) ([3]; dose 50 mg/kg): 18.47±0.45 U/L | TBC ([3]; dose 5 mg/kg): 23.56 | TBC ([3]; dose 50 mg/kg): 25.57 | logRBA ERβ (ERβ): 1.39 ^† | colon section histopathology [12]: no morphological changes | heart section histopathology [12]: no morphological changes | kidney section histopathology [12]: no morphological changes | liver section histopathology [12]: no morphological changes | lung section histopathology [12]: no morphological changes | spleen section histopathology [12]: no morphological changes | WL after MFD (day 1, mg) (average body weight at day 1, dosing at MFD): 305.84 ± 0.59 mg | WL after MFD (day 5, mg) (average body weight at day 5, dosing at MFD): 297.65 ± 0.39 mg | MFD (5 days) (maximum feasible (or tolerated) dose, 5 days per os, 5-1000 mg/kg bwt): 1000 mg/kg | Cell Cycle (%) G0/G1 (MCF-7 cells; 0.1 nM): 57.22 ± 0.37 *^,†,§ % | Cell Cycle (%) G2/M (MCF-7 cells; 0.1 nM): 24.02 ± 0.53 *^,,†§ % | Cell Cycle (%) S (MCF-7 cells; 0.1 nM): 18.76 ± 0.41 *^,†,§ % | Cell Cycle (%) G0/G1 (MCF-7 cells; 1 nM): 63.26 ± 0.41 *^,†,§ % | Cell Cycle (%) G2/M (MCF-7 cells; 1 nM): 15.60 ± 0.15 *^,†,§ % | Cell Cycle (%) S (MCF-7 cells; 1 nM): 21.14 ± 0.25 *^,†,§ % | fraction unbound at 5 mg/kg bwt [4]: 0.0185 | fraction unbound at 50 mg/kg bwt [4]: 0.0252 | IC50 (MDA-MB-231 cell lines; growth inhibition, 48 h): 37.1 ± 0.45 nM | IC50 (MDA-MB-231 cell lines; references in Table S17): 37.04 ± 0.32 nM | IC50 at 48 h ([5]; MRC-5 lung fibroblast cells, MRC-5 (IC50 nM), growth inhibition): > 10 nM | IC50 at 48 h ([5]; MRC-5 lung fibroblast cells, MRC-5 (IC50 nM), references in Table S17): > 100 nM | IC50 (MCF-7 cell lines; growth inhibition, 48 h): 1.19 ± 0.57 nM | IC50 (MCF-7 cell lines; references in Table S17): 1.24 ± 0.32 nM | breast section histopathology ([6]; 5 mg/kg of bwt): necrosis (NEC) | breast section histopathology ([6]; 50 mg/kg of bwt): necrosis (NEC) | IC50 [7]: > 100 nM | CAT ([8]; dose 5 mg/kg): 13.56±0.88 | CAT ([8]; dose 50 mg/kg): 20.46±0.76 | TBARS ([8]; dose 50 mg/kg): 3.63 ± 0.32 nmol/mg | GSH ([8]; dose 5 mg/kg): 4.67 mg/g | GSH ([8]; dose 50 mg/kg): 3.33 mg/g | SOD (U/mg) ([8]; dose 5 mg/kg): 4.87±0.72 U/mg | SOD (U/mg) ([8]; dose 50 mg/kg): 7.46±0.34 U/mg | TP ([8]; dose 50 mg/kg): 47.46 g/L | BIO ([9]; oral 5 mg/kg): 88 ^‖ | BIO ([9]; oral 50 mg/kg): 94 | IC50 [10]: 1.29 ± 0.43 nM

CC(=O)c1cc(C(=O)O[C@@H]2/C=C/C(=O)O[C@@H](O)CCC/C=C/[C@@H]3C[C@H](O)C[C@H]32)ccc1OCCS(=O)(=O)O [Compound 3DPQ-4, 2-(2-acetyl-4-((((1R,2E,6R,10E,11aS,13S,14aR)-6,13-dihydroxy-4-oxo-4,6,7,8,9,11a,12,13,14,14a-decahydro-1H-cyclopenta[f][1]oxacyclotridecin-1-yl)oxy)carbonyl)phenoxy)ethanesulfonic acid]
Tumor Burden (week) ([1]; dose 5 mg/kg per os after MNU): 2.39 ± 0.56 *^,†,‡,‖ week | Tumor Latency (week) ([1]; dose 5 mg/kg per os after MNU): 10 *^,† week | Tumor Volume (mm^3) ([1]; dose 5 mg/kg per os after MNU): 0.98 ± 0.31 *^,†,‡,‖ mm^3 | Tumor Burden (week) [1, 11]: 1.33 ± 0.15 *^,†,§,┴ week | Tumor Latency (week) [1, 11]: 14 *^,† week | Tumor Volume (mm^3) [1, 11]: 0.41 ± 0.23 *^,†,§,┴ mm^3 | logD at 30 min [2]: 1.88 | ALP (A/L) ([3]; dose 5 mg/kg): 99.41±0.15 A/L | ALT (A/L) ([3]; dose 5 mg/kg): 55.87±0.62 A/L | AST (U/L) ([3]; dose 5 mg/kg): 57.53±0.43 U/L | γ-GT (U/L) ([3]; dose 5 mg/kg): 11.54±0.53 U/L | ALP (A/L) ([3]; dose 50 mg/kg): 104.52±0.31 A/L | ALT (A/L) ([3]; dose 50 mg/kg): 59.74±0.1 A/L | AST (U/L) ([3]; dose 50 mg/kg): 59.46±0.63 U/L | γ-GT (U/L) ([3]; dose 50 mg/kg): 13.46±0.55 U/L | TBC ([3]; dose 5 mg/kg): 19.31 | TBC ([3]; dose 50 mg/kg): 22.74 | Ki (ERβ; calculated antagonistic (inhibitory) constant, read-out: Ka ERβ): 46.3 nM | IC50 (ERβ; concentration that antagonizes 50% of ERβ signaling activity, read-out: ERβ (IC50 nM)): 82.45 ± 0.54 nM | logRBA ERβ (ERβ): 0.03 ^†,‡,§ | WL after MFD (day 1, mg) (rat, in vivo): 320.73 ± 0.36 mg | Cell Cycle (%) G0/G1 (MCF-7 cells; 0.1 nM): 77.78 ± 3.54 *^,†,‡,§ % | Cell Cycle (%) G2/M (MCF-7 cells; 0.1 nM): 15.02 ± 4.23 *^,†,‡,§ % | Cell Cycle (%) S (MCF-7 cells; 0.1 nM): 7.20 ± 2.88 *^,†,‡,§ % | Cell Cycle (%) G0/G1 (MCF-7 cells; 1 nM): 80.24 ± 2.53 *^,†,‡,§ % | Cell Cycle (%) G2/M (MCF-7 cells; 1 nM): 11.86 ± 3.43 *^,†,‡,§ % | Cell Cycle (%) S (MCF-7 cells; 1 nM): 7.91 ± 0.1.54 *^,†,‡,§ % | fraction unbound at 5 mg/kg bwt [4]: 0.0123 | fraction unbound at 50 mg/kg bwt [4]: 0.0151 | IC50 (MDA-MB-231 cell lines; Homo sapiens, MDA-MB-231, growth inhibition, 48 h): 67.31 ± 0.34 nM | IC50 at 48 h [5]: > 100 nM | IC50 (MCF-7 cell lines; Homo sapiens, MCF7, growth inhibition, 48 h): 0.64 ± 0.15 nM | breast section histopathology ([6]; 5 mg/kg of bwt): lobuloalveolar unit (LaU) and cuboidal epithelial cells (CE) | breast section histopathology ([6]; 50 mg/kg of bwt): lobuloalveolar unit (LaU) and cuboidal epithelial cells (CE) | IC50 [7]: > 100 nM | CAT ([8]; dose 5 mg/kg): 16.34±0.73 | CAT ([8]; dose 50 mg/kg): 16.43±0.66 | TBARS ([8]; dose 5 mg/kg): 0.65 ± 0.21 nmol/mg | TBARS ([8]; dose 50 mg/kg): 0.65 ± 0.34 nmol/mg | GSH ([8]; dose 5 mg/kg): 9.87 mg/g | GSH ([8]; dose 50 mg/kg): 10.36 mg/g | SOD (U/mg) ([8]; dose 5 mg/kg): 8.73±0.38 U/mg | SOD (U/mg) ([8]; dose 50 mg/kg): 10.57±0.73 U/mg | TP ([8]; dose 50 mg/kg): 48.54 g/L | BIO ([9]; oral 5 mg/kg): 90 | BIO ([9]; oral 50 mg/kg): 93 | IC50 [10]: 0.92 ± 0.43 nM
